Results as given in paper PMC5513037, “Examining the influence of specificity ligands and ATP-competitive ligands on the overall effectiveness of bivalent kinase inhibitors” (Proteome Science, 2017).

How the values were obtained:
Assay in all cases: KAM-matrix competition in K562 lysate;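 for 0.001 uM KAM: median log10 fold change of treatment over DMSO control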;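 for 0.01 uM KAM: median log10 fold change of treatment over DMSO control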;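 for 0.1 uM KAM: median log10 fold change of treatment over DMSO control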;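 for 1 uM KAM: median log10 fold change of treatment over DMSO control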;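 for 10 uM KAM: median log10 fold change of treatment over DMSO control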
Type in all cases: binding
BLVRA = molecular target: T1, BLVRA (Homo sapiens, UniProt P53004);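 for 0.001 uM KAM: median log10 fold change of treatment over DMSO control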;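 for 0.01 uM KAM: median log10 fold change of treatment over DMSO control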;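 for 0.1 uM KAM: median log10 fold change of treatment over DMSO control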;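 for 1 uM KAM: median log10 fold change of treatment over DMSO control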;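 for 10 uM KAM: median log10 fold change of treatment over DMSO control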
T1 construct: endogenous in cells; host or cells: K562
T1 sequence (P53004 3-296): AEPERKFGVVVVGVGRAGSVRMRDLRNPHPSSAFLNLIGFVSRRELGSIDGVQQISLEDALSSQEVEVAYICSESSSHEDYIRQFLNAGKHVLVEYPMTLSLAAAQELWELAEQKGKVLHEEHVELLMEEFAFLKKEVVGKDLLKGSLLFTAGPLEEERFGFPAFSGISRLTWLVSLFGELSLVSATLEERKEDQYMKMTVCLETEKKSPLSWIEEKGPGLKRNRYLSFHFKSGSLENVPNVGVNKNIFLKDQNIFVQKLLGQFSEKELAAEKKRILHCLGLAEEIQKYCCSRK
Description: (§1) Supplement 12953_2017_125_MOESM1_ESM.zip/MS_Supp Info.xlsx, sheet "KAM" | column: 10 uM KAM; 1 uM KAM; 0.1 uM KAM; 0.01 uM KAM; 0.001 uM KAM; RB50

FYN = molecular target: T2, FYN (Homo sapiens, UniProt P06241)
T2 construct: endogenous in cells; host or cells: K562
Description: as §1

MAP3K4 = molecular target: T3, MAP3K4 (Homo sapiens, UniProt Q9Y6R4);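 for 0.001 uM KAM: median log10 fold change of treatment over DMSO control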;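 for 0.01 uM KAM: median log10 fold change of treatment over DMSO control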;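 for 0.1 uM KAM: median log10 fold change of treatment over DMSO control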;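 for 1 uM KAM: median log10 fold change of treatment over DMSO control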;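 for 10 uM KAM: median log10 fold change of treatment over DMSO control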
T3 construct: endogenous in cells; host or cells: K562
Description: as §1

MARK3 = molecular target: T4, MARK3 (Homo sapiens, UniProt P27448)
T4 construct: endogenous in cells; host or cells: K562
Description: as §1

RIOK2 = molecular target: T5, RIOK2 (Homo sapiens, UniProt Q9BVS4)
T5 construct: endogenous in cells; host or cells: K562
Description: as §1

STK4 = molecular target: T6, STK4 (Homo sapiens, UniProt Q13043)
T6 construct: endogenous in cells; host or cells: K562
T6 sequence (Q13043 1-487): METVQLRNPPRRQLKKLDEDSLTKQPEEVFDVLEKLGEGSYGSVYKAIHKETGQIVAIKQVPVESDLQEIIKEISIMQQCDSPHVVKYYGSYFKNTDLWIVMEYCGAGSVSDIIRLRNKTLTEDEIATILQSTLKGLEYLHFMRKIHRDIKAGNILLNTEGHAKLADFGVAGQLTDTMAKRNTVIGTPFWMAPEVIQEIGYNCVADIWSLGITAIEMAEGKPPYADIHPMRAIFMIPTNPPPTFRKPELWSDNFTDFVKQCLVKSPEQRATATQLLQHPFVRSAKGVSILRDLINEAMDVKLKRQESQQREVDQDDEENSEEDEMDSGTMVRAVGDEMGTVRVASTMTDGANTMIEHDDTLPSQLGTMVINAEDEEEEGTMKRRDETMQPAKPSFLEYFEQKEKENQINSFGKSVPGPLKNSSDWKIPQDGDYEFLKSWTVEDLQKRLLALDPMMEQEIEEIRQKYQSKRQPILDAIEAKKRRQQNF
Description: as §1

TTK = molecular target: T7, TTK (Homo sapiens, UniProt P33981);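 for 0.001 uM KAM: median log10 fold change of treatment over DMSO control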;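 for 0.01 uM KAM: median log10 fold change of treatment over DMSO control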;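 for 0.1 uM KAM: median log10 fold change of treatment over DMSO control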;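 for 1 uM KAM: median log10 fold change of treatment over DMSO control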;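 for 10 uM KAM: median log10 fold change of treatment over DMSO control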
T7 construct: endogenous in cells; host or cells: K562
T7 sequence (P33981 1-857): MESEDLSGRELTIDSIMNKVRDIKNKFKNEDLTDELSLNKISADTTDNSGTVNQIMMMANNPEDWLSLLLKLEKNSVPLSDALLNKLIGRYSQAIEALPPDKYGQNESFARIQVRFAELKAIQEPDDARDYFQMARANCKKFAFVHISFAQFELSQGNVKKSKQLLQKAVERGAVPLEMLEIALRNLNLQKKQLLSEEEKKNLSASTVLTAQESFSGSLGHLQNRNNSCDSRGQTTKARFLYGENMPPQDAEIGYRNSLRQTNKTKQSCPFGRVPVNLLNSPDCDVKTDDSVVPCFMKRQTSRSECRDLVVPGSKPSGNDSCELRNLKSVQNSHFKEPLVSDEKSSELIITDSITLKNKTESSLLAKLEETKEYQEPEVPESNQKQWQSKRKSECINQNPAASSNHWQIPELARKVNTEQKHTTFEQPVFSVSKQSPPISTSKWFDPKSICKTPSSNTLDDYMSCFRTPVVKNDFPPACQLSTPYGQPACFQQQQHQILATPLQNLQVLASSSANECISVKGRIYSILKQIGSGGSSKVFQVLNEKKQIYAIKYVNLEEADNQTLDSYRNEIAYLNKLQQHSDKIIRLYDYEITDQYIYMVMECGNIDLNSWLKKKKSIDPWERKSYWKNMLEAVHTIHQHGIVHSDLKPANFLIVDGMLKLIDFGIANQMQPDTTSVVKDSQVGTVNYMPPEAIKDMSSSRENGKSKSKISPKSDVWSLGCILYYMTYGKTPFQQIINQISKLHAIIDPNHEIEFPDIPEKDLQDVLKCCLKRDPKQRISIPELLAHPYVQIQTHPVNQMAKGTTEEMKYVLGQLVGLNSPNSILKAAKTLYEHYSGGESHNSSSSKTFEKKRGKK
Description: as §1

[1] = KAM 0.001-10 uM, read-out: RB50 (the source's name)
[2] = read-out: RB50 (the source's name)

T2 sequence (P06241 whole entry): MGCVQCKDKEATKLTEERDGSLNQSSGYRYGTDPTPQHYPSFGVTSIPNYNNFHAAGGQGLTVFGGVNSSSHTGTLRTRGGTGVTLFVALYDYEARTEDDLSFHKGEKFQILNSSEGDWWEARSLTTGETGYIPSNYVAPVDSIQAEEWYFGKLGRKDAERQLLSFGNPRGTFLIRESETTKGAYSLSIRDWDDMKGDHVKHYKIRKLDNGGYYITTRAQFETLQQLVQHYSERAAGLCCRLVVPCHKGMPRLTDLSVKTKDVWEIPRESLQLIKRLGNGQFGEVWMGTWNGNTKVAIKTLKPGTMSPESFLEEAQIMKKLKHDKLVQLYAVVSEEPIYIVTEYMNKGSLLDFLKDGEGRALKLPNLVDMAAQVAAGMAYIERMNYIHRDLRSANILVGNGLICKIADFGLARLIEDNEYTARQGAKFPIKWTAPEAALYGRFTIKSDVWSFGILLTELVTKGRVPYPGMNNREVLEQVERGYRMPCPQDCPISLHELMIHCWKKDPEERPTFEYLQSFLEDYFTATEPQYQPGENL
T3 sequence (Q9Y6R4 whole entry): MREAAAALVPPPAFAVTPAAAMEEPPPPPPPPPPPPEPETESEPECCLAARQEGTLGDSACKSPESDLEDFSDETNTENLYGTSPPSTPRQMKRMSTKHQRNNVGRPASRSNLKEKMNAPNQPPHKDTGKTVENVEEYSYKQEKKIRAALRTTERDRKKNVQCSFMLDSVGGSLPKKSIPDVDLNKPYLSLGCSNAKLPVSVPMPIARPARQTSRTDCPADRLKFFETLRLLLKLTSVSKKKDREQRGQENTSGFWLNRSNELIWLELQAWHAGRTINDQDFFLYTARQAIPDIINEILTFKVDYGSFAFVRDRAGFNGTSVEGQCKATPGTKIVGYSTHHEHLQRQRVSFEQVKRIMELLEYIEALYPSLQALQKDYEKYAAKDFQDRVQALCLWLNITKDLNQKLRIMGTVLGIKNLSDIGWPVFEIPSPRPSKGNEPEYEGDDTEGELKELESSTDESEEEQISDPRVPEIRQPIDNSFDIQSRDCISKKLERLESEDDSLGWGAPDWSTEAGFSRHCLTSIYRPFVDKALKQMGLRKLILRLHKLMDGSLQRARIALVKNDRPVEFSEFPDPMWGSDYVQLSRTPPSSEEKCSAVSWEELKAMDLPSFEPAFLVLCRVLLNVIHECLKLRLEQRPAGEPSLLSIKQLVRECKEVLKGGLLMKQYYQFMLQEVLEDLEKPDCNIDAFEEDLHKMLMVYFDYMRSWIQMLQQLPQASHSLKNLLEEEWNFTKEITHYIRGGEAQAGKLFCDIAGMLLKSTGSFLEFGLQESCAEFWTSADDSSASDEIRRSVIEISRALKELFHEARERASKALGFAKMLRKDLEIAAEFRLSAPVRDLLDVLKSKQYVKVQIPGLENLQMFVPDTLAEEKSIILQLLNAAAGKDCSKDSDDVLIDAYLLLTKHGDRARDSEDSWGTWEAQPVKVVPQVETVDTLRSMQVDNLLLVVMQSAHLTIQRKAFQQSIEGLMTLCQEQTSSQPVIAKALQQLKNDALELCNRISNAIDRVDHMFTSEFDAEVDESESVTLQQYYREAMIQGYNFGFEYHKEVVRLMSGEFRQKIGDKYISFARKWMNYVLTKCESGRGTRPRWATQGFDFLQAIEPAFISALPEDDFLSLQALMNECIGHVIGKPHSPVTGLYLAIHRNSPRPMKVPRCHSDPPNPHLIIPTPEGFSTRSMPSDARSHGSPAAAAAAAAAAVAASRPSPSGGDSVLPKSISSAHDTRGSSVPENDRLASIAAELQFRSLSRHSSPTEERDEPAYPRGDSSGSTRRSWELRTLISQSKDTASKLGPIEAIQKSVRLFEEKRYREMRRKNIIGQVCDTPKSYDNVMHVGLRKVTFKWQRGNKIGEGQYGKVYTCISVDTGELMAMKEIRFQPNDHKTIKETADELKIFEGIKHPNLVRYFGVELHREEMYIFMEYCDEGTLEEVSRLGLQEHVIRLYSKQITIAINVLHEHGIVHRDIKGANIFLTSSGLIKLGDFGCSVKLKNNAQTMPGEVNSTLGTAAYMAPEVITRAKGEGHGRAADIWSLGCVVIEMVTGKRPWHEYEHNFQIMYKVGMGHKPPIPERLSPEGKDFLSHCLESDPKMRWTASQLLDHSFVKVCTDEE
T5 sequence (Q9BVS4 whole entry): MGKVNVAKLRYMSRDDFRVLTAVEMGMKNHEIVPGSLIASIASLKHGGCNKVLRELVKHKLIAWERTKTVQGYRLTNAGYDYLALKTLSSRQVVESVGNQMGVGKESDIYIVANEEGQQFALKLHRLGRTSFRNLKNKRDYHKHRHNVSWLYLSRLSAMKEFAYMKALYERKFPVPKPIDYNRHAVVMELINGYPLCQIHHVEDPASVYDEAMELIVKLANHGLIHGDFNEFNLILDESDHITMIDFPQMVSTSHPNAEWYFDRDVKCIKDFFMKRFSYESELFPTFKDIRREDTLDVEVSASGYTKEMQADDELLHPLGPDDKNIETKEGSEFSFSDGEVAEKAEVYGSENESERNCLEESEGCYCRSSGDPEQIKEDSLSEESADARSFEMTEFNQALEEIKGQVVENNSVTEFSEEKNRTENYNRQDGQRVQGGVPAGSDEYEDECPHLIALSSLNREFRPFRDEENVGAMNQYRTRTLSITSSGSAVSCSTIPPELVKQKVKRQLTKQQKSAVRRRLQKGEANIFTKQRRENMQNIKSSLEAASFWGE
T4 sequence (P27448 whole entry): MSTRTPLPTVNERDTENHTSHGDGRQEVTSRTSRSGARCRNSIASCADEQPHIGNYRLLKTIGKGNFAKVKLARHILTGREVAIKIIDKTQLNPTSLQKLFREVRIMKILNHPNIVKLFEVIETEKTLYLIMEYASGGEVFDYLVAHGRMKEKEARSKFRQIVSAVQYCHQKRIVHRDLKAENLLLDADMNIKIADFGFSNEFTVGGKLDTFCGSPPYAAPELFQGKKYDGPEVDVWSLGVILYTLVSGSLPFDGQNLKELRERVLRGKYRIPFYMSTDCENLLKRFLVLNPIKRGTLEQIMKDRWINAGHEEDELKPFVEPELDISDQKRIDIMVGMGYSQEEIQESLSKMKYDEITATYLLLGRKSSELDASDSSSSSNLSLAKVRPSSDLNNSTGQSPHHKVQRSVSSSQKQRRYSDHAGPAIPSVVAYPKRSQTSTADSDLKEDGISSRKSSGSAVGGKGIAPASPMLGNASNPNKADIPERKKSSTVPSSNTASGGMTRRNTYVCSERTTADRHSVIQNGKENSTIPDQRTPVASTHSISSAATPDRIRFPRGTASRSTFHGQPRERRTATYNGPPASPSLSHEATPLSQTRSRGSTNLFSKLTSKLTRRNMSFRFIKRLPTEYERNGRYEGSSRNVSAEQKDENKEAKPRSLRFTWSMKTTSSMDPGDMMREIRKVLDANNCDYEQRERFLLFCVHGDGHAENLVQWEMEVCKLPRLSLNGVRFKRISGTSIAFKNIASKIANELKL

Q: Which results are given for N#CCc1ccc(Nc2nc(NCCCN)cc(Nc3cc(C4CC4)[nH]n3)n2)cc1 [KAM]?
A: IC50 (BLVRA; [1]): > 10000 nM; 0.001 uM KAM (BLVRA; relative to 0 uM KAM = 0): 0.01315; 0.01 uM KAM (BLVRA; relative to 0 uM KAM = 0): 0.09211; 0.1 uM KAM (BLVRA; relative to 0 uM KAM = 0): 0.1192; 1 uM KAM (BLVRA; relative to 0 uM KAM = 0): 0.1811; 10 uM KAM (BLVRA; relative to 0 uM KAM = 0): 0.1365; median Log10 fold change (FYN; 0.001 uM KAM): -0.01373; median Log10 fold change (FYN; 0.01 uM KAM): 0.006068; median Log10 fold change (FYN; 0.1 uM KAM): -0.1646; median Log10 fold change (FYN; 1 uM KAM): -0.3588; median Log10 fold change (FYN; 10 uM KAM): -0.4538; IC50 (FYN; [2]): 754 nM; IC50 (MAP3K4; [1]): > 10000 nM; 0.001 uM KAM (MAP3K4; relative to 0 uM KAM = 0): -0.03643; 0.01 uM KAM (MAP3K4; relative to 0 uM KAM = 0): -0.006572; 0.1 uM KAM (MAP3K4; relative to 0 uM KAM = 0): -0.06704; 1 uM KAM (MAP3K4; relative to 0 uM KAM = 0): -0.09539; 10 uM KAM (MAP3K4; relative to 0 uM KAM = 0): -0.1299; median Log10 fold change (MARK3; 0.001 uM KAM): -0.0002127; median Log10 fold change (MARK3; 0.01 uM KAM): -0.02099; median Log10 fold change (MARK3; 0.1 uM KAM): -0.2742; median Log10 fold change (MARK3; 1 uM KAM): -0.5652; median Log10 fold change (MARK3; 10 uM KAM): -0.6472; IC50 (MARK3; [2]): 160 nM; median Log10 fold change (RIOK2; 0.001 uM KAM): -0.01457; median Log10 fold change (RIOK2; 0.01 uM KAM): -0.03291; median Log10 fold change (RIOK2; 0.1 uM KAM): -0.138; median Log10 fold change (RIOK2; 1 uM KAM): -0.3574; median Log10 fold change (RIOK2; 10 uM KAM): -0.5027; IC50 (RIOK2; [2]): 774 nM; median Log10 fold change (STK4; 0.001 uM KAM): -0.002208; median Log10 fold change (STK4; 0.01 uM KAM): -0.01313; median Log10 fold change (STK4; 0.1 uM KAM): -0.2747; median Log10 fold change (STK4; 1 uM KAM): -0.6557; median Log10 fold change (STK4; 10 uM KAM): -0.6912; IC50 (STK4; [2]): 146 nM; IC50 (TTK; [1]): > 10000 nM; 0.001 uM KAM (TTK; relative to 0 uM KAM = 0): -0.02414; 0.01 uM KAM (TTK; relative to 0 uM KAM = 0): 0.009793; 0.1 uM KAM (TTK; relative to 0 uM KAM = 0): -0.08807; 1 uM KAM (TTK; relative to 0 uM KAM = 0): -0.1446; 10 uM KAM (TTK; relative to 0 uM KAM = 0): -0.2103
